Assay [1] has as its system Pseudomonas aeruginosa strain PAO1. Kind of assay: Initial susceptibility testing at a fixed concentration. It is filed as cell-based. Also on record: key: Tick (✓) represents OD600 comparable to no-growth control; cross (✗) represents OD600 comparable to growth control without any peptide. The conditions noted are these: 256 μg mL−1 of peptide, overnight incubation, OD600 compared with growth and no-growth controls.

Assay [2] deals with P. aeruginosa strain PAO1.
In assay [3] the test system is P. aeruginosa strain PA14.
[4] abbreviates: Table S5, altered linking region between peptide and cephalosporin.
Setting [5] is: Table 2, broth microdilution in MH medium, 37 °C, 16 h, MTT and OD600, triplicate.

Like-named read-outs stand apart in the source and are kept apart here. Where a SMILES comes first, the peptide text is derived from it. Where no end group is shown, it is not given here. Some results are limits rather than exact numbers.

From publication PMC12447755, “β-Lactamase cleavable antimicrobial peptide–drug conjugates” (Chemical Science, 2025) come the findings set out here.

For `CC(C)C[C@@H]1NC(=O)[C@H](CCCNC(=N)N)NC(=O)[C@H](Cc2c[nH]cn2)NC(=O)[C@@H](NC(=O)[C@H](CC(C)C)NC(=O)[C@H](CCCCN)NC(=O)[C@H](CCCNC(=N)N)NC(=O)[C@H](Cc2ccccc2)NC(=O)[C@H](CC(C)C)NC(=O)[C@@H](N)CC(N)=O)CSCCc2cc(nc(NCCCc3ccccc3)n2)CCSC[C@@H](C(=O)N[C@@H](Cc2ccccc2)C(=O)NCC(=O)N[C@@H](Cc2ccc(O)cc2)C(=O)N[C@H](C(=O)N[C@@H](CC(C)C)C(=O)N[C@@H](CCCNC(=N)N)C(N)=O)[C@@H](C)O)NC(=O)[C@H](CCCNC(=N)N)NC(=O)[C@H](CCCNC(=N)N)NC(=O)[C@H](Cc2ccccc2)NC1=O` [P7-1] (HELM PEPTIDE1{N.L.F.R.K.L.C.H.R.L.F.R.R.C.F.G.Y.T.L.R.[am]}|CHEM1{[c1ccc(CCCNc2nc(CC[*:1])cc(CC[*:2])n2)cc1]}$PEPTIDE1,CHEM1,7:R3-1:R1|PEPTIDE1,CHEM1,14:R3-1:R2$$$V2.0), the “Inh (inhibition)” value in assay [1] was “✗”.

Regarding `CC(=O)N[C@H](C(=O)N[C@@H](CC(C)C)C(=O)N[C@@H](CCCCN)C(=O)N[C@@H](CCC(N)=O)C(=O)N[C@@H](Cc1ccccc1)C(=O)N[C@H]1CSCCc2cc(nc(NCCCc3ccccc3)n2)CCSC[C@@H](C(=O)N[C@H](C(=O)N[C@@H](CCCCN)C(N)=O)C(C)C)NC(=O)[C@H](Cc2c[nH]c3ccccc23)NC(=O)[C@H](CCCCN)NC(=O)CNC(=O)[C@H](C(C)C)NC(=O)CNC(=O)[C@H](CCCCN)NC1=O)[C@@H](C)O` [P1-1] (HELM PEPTIDE1{[ac].T.L.K.Q.F.C.K.G.V.G.K.W.C.V.K.[am]}|CHEM1{[c1ccc(CCCNc2nc(CC[*:1])cc(CC[*:2])n2)cc1]}$PEPTIDE1,CHEM1,7:R3-1:R1|PEPTIDE1,CHEM1,14:R3-1:R2$$$V2.0), in assay [1], the “Inh (inhibition)” value was “✗”.

For the compound `C[C@@H]1NC(=O)[C@H](Cc2c[nH]c3ccccc23)NC(=O)[C@H](CCCCN)NC(=O)[C@@H](NC(=O)[C@@H](N)Cc2ccccc2)CSCCc2cc(nc(NCCCC(=O)N[C@@H](C(=O)N[C@@H]3C(=O)N4C(C(=O)O)=C(COC(=O)N5CCN(c6cc7c(cc6F)c(=O)c(C(=O)O)cn7C6CC6)CC5)CS[C@H]34)c3ccccc3)n2)CCSC[C@@H](C(=O)N[C@@H](CCCCN)C(=O)N[C@@H](CCCCN)C(N)=O)NC(=O)[C@H](Cc2c[nH]c3ccccc23)NC(=O)[C@H](CCCCN)NC(=O)[C@H](Cc2ccccc2)NC1=O` [P2-21], the “PAO1 MIC” value came out at 27 µM in assay [2] (PAO1, 18 h) and 64 mg/L in assay [2] (setting [4]). The “PA14 MIC” value worked out at 13 µM in assay [3] (PA14, 18 h) and 32 mg/L in assay [3] (Table S5).

Take `CC[C@H](C)[C@H](NC(=O)[C@H](CCCCN)NC(=O)[C@H](CCCCN)NC(=O)[C@@H]1CSCCc2cc(nc(NCCCc3ccccc3)n2)CCSC[C@H](NC(=O)[C@H](CC(C)C)NC(=O)[C@H](CCCNC(=N)N)NC(=O)[C@H](CCCNC(=N)N)NC(=O)[C@H](Cc2ccccc2)NC(=O)[C@@H](N)CCCNC(=N)N)C(=O)N[C@@H](CCCCN)C(=O)N[C@@H](CCCCN)C(=O)N[C@@H](Cc2c[nH]c3ccccc23)C(=O)N[C@@H](CCCNC(=N)N)C(=O)N[C@@H](CCCCN)C(=O)N[C@@H](CCCNC(=N)N)C(=O)N1)C(N)=O` [P4-1] (HELM PEPTIDE1{R.F.R.R.L.C.K.K.W.R.K.R.C.K.K.I.[am]}|CHEM1{[c1ccc(CCCNc2nc(CC[*:1])cc(CC[*:2])n2)cc1]}$PEPTIDE1,CHEM1,6:R3-1:R1|PEPTIDE1,CHEM1,13:R3-1:R2$$$V2.0): the “Inh (inhibition)” value in assay [1] is “✓”.

As to `CC(=O)OCC1=C(C(=O)O)N2C(=O)[C@@H](NC(=O)CCCNc3nc4cc(n3)CCSC[C@H](NC(=O)[C@H](Cc3c[nH]c5ccccc35)NC(=O)[C@H](CCCCN)NC(=O)[C@H](C)NC(=O)[C@@H](N)Cc3ccccc3)C(=O)N[C@@H](Cc3ccccc3)C(=O)N[C@@H](CCCCN)C(=O)N[C@@H](Cc3c[nH]c5ccccc35)C(=O)N[C@@H](CC(C)C)C(=O)N[C@@H](CCCCN)C(=O)N[C@@H](CCCCN)C(=O)N[C@H](C(N)=O)CSCC4)[C@H]2SC1` [P9-8], the “PAO1 MIC” value in assay [2] (PAO1, 18 h) is above 31 µM. For the same compound, the “PA14 MIC” value in assay [3] (PA14, 18 h) was 31 µM.

For `C[C@@H]1NC(=O)[C@H](Cc2c[nH]c3ccccc23)NC(=O)[C@H](CCCCN)NC(=O)[C@@H](NC(=O)[C@@H](N)Cc2ccccc2)CSCCc2cc(nc(NCCCC(=O)N3CCN(c4cc5c(cc4F)c(=O)c(C(=O)O)cn5C4CC4)CC3)n2)CCSC[C@@H](C(=O)N[C@@H](CCCCN)C(=O)N[C@@H](CCCCN)C(N)=O)NC(=O)[C@H](Cc2c[nH]c3ccccc23)NC(=O)[C@H](CCCCN)NC(=O)[C@H](Cc2ccccc2)NC1=O` [P2-12] (HELM PEPTIDE1{F.C.K.W.A.F.K.W.C.K.K.[am]}|CHEM1{[O=C(O)c1cn(C2CC2)c2cc(N3CCN(C(=O)CCCNc4nc(CC[*:1])cc(CC[*:2])n4)CC3)c(F)cc2c1=O]}$PEPTIDE1,CHEM1,2:R3-1:R1|PEPTIDE1,CHEM1,9:R3-1:R2$$$V2.0), in assay [2] (setting [5]), the “MIC for PAO1” value was above 64 mg/L. For the same compound, in assay [3] (setting [5]), the “MIC for PA14” value was above 64 mg/L.

In the case of `CC(=O)OCC1=C(C(=O)O)N2C(=O)[C@@H](NC(=O)CCCNc3nc4cc(n3)CCSC[C@H](NC(=O)[C@H](CCCCN)NC(=O)[C@H](C)NC(=O)[C@H](Cc3ccccc3)NC(=O)[C@@H](N)CCCCN)C(=O)N[C@@H](C)C(=O)N[C@@H](Cc3ccccc3)C(=O)N[C@@H](CCCCN)C(=O)N[C@@H](Cc3c[nH]c5ccccc35)C(=O)N[C@@H](CC(C)C)C(=O)N[C@@H](CCCCN)C(=O)N[C@H](C(N)=O)CSCC4)[C@H]2SC1` [P12-8], the “PAO1 MIC” value in assay [2] (PAO1, 18 h) was above 33 µM. Also, the “PA14 MIC” value in assay [3] (PA14, 18 h) is reported as above 33 µM.

As to `CC[C@H](C)CCCCC(=O)N[C@@H](CCN)C(=O)N[C@H](C(=O)N[C@@H](CCN)C(=O)N[C@H]1CCNC(=O)[C@H]([C@@H](C)O)NC(=O)[C@H](CCN)NC(=O)[C@H](CCN)NC(=O)[C@H](CC(C)C)NC(=O)[C@@H](Cc2ccccc2)NC(=O)[C@H](CCN)NC1=O)[C@@H](C)O` [Polymyxin B, reference compound] (HELM PEPTIDE1{[CC[C@H](C)CCCCC(=O)[*:2]].[Dab].T.[Dab].[Dab].[Dab].[dF].L.[Dab].[Dab].T}$PEPTIDE1,PEPTIDE1,5:R3-11:R2$$$V2.0; N-terminus assumed; bridges inferred), the “MIC for PAO1” value in assay [2] (PAO1, 18 h) is 1.7 µM. For the same compound, the “PAO1 MIC” value in assay [2] (PAO1, 18 h) came out at 0.83 µM; in assay [2] (Table S3, initial MIC values), 2 mg/L; in assay [2] (Table S4, cephalosporin-based staple 8 at different positions), 1 mg/L. Besides, in assay [3] (PA14, 18 h), the “MIC for PA14” value was 0.83 µM. Also, the “PA14 MIC” value in assay [3] (Table S3, initial MIC values) came out at 1 mg/L; in assay [3] (Table S4), 0.83 µM.

Turning to `CCCCCCCC(=O)NCC(=O)N[C@H]1CSCCc2cc(nc(NCCCc3ccccc3)n2)CCSC[C@@H](C(=O)N[C@@H](CC(C)C)C(N)=O)NC(=O)[C@H](CCCCN)NC(=O)[C@H](CCCCN)NC(=O)[C@H]([C@@H](C)CC)NC(=O)[C@H](Cc2ccccc2)NC(=O)[C@H](CCCCN)NC(=O)[C@H](CC(C)C)NC1=O` [P5-1] (HELM PEPTIDE1{[CCCCCCCC(=O)[*:2]].G.C.L.K.F.I.K.K.C.L.[am]}|CHEM1{[c1ccc(CCCNc2nc(CC[*:1])cc(CC[*:2])n2)cc1]}$PEPTIDE1,CHEM1,3:R3-1:R1|PEPTIDE1,CHEM1,10:R3-1:R2$$$V2.0), in assay [1], the “Inh (inhibition)” value is “✗”.

For the compound “KWVQNYMKHLGRKAHTLKT-NH2 [P6a, reference compound]”, the “Inh (inhibition)” value in assay [1] is listed as “✓”.

As to `CC(=O)OCC1=C(C(=O)O)N2C(=O)[C@@H](NC(=O)CCCNc3nc4cc(n3)CCSC[C@H](N)C(=O)N[C@@H](C)C(=O)N[C@@H](CCCCN)C(=O)N[C@@H](Cc3c[nH]c5ccccc35)C(=O)N[C@@H](C)C(=O)N[C@@H](Cc3ccccc3)C(=O)N[C@@H](CCCCN)C(=O)N[C@H](C(=O)N[C@@H](CC(C)C)C(=O)N[C@@H](CCCCN)C(=O)N[C@@H](CCCCN)C(N)=O)CSCC4)[C@H]2SC1` [P8-8], in assay [2] (PAO1, 18 h), the “PAO1 MIC” value is reported as above 35 µM. For the same compound, the “PA14 MIC” value in assay [3] (PA14, 18 h) was above 35 µM.

Take `CC(=O)OCC1=C(C(=O)O)N2C(=O)[C@@H](NC(=O)CCCNc3nc4cc(n3)CCSC[C@H](N)C(=O)N[C@@H](Cc3ccccc3)C(=O)N[C@@H](C)C(=O)N[C@@H](CCCCN)C(=O)N[C@@H](Cc3c[nH]c5ccccc35)C(=O)N[C@@H](C)C(=O)N[C@@H](Cc3ccccc3)C(=O)N[C@H](C(=O)N[C@@H](Cc3c[nH]c5ccccc35)C(=O)N[C@@H](CC(C)C)C(=O)N[C@@H](CCCCN)C(=O)N[C@@H](CCCCN)C(N)=O)CSCC4)[C@H]2SC1` [P11-8]: the “PAO1 MIC” value in assay [2] (PAO1, 18 h) is given as above 32 µM. For the same compound, the “PA14 MIC” value in assay [3] (PA14, 18 h) is above 32 µM.

In the case of `CC(=O)OCC1=C(C(=O)O)N2C(=O)[C@@H](NC(=O)CCCNc3nc4cc(n3)CCSC[C@H](NC(=O)[C@H](CCCCN)NC(=O)[C@H](C)NC(=O)[C@@H](N)Cc3ccccc3)C(=O)N[C@@H](C)C(=O)N[C@@H](Cc3ccccc3)C(=O)N[C@@H](CCCCN)C(=O)N[C@@H](Cc3c[nH]c5ccccc35)C(=O)N[C@@H](CC(C)C)C(=O)N[C@@H](CCCCN)C(=O)N[C@H](C(N)=O)CSCC4)[C@H]2SC1` [P10-8], the “PAO1 MIC” value in assay [2] (PAO1, 18 h) is reported as above 35 µM. Besides, the “PA14 MIC” value in assay [3] (PA14, 18 h) is given as above 35 µM.

As to `C[C@@H]1NC(=O)[C@H](Cc2c[nH]c3ccccc23)NC(=O)[C@H](CCCCN)NC(=O)[C@@H](NC(=O)[C@@H](N)Cc2ccccc2)CSCCc2cc(nc(NCCCC(=O)NCCCCCC(=O)N[C@@H]3C(=O)N4C(C(=O)O)=C(COC(=O)N5CCN(c6cc7c(cc6F)c(=O)c(C(=O)O)cn7C6CC6)CC5)CS[C@H]34)n2)CCSC[C@@H](C(=O)N[C@@H](CCCCN)C(=O)N[C@@H](CCCCN)C(N)=O)NC(=O)[C@H](Cc2c[nH]c3ccccc23)NC(=O)[C@H](CCCCN)NC(=O)[C@H](Cc2ccccc2)NC1=O` [P2-20], the “PAO1 MIC” value in assay [2] (PAO1, 18 h) is 13 µM; in assay [2] (setting [4]), 32 mg/L. The “PA14 MIC” value came to 13 µM in assay [3] (PA14, 18 h) and 32 mg/L in assay [3] (Table S5).
